Results on one molecule are retold here after ChEMBL document CHEMBL5584239, “Discovery of novel quinoline scaffold selective estrogen receptor degraders (SERDs) for treatment of ER positive breast cancer with enhanced antiproliferative bioactivity through immunogenic cell death (ICD) effects” (Eur J Med Chem, 2024).

The source made the active and inactive calls. No cut-off for these calls is given here.

For series [1], the system named is Ishikawa. Put plainly: Antiproliferative activity against human Ishikawa cells at 20 uM incubated for 3 days by MTT assay relative to control. The class given is functional. The following applies: 72 h, time 3 day.
The target of series [2] is T1, Estrogen receptor (Homo sapiens) (UniProt P03372).
T1 sequence (whole entry): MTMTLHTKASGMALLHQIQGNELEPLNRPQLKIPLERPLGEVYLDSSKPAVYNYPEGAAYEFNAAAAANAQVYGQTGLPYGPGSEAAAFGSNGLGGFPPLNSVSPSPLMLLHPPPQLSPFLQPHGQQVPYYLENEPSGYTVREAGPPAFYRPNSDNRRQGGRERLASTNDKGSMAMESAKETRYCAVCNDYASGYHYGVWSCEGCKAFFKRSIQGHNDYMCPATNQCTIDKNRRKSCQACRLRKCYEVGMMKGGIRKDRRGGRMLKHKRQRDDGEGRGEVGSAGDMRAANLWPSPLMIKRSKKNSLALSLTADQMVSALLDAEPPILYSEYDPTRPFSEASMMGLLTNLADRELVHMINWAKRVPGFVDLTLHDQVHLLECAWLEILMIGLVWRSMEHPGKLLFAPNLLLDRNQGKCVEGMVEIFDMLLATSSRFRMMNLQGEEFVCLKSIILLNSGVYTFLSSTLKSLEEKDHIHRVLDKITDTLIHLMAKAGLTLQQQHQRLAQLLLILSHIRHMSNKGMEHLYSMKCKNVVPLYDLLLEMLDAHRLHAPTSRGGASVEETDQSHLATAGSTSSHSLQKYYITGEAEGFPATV
Put plainly: Induction of estrogen receptor degradation in human MCF7 cells at 10 uM by fluorescence microscopy. The class given is cell-based.

Series [3] concerns the target T1, Estrogen receptor (Homo sapiens). Description: Induction of estrogen receptor degradation in estradiol-stimulated human MCF7 cells assessed as decrease in GREB1 mRNA level incubated for 24 hrs by RT-qPCR analysis. The class given is cell-based. The following applies: dose 1-10 µM.
The target is the same in series [4]. Description: Induction of estrogen receptor degradation in estradiol-stimulated human MCF7 cells assessed as decrease in TFF1 mRNA level incubated for 24 hrs by RT-qPCR analysis. The class given is cell-based. The following applies: dose 1-10 µM.
Series [5] has the same target. Description: Induction of estrogen receptor degradation in human MCF7 cells expressing ERE-luciferase at 10 uM incubated for 24 hrs by luminescence based analysis. The format is cell-based.
The nature of series [6]: Cmax in rat at 5 mg/kg, iv measured for 1 to 24 hrs by LC-MS analysis. The class given is ADME, organism-based. The following applies: in vivo, time 1-24 hrs.
Series [7] can be described thus: AUC (0 to infinity) in rat at 5 mg/kg, iv measured for 1 to 24 hrs by LC-MS analysis. The following applies: in vivo, time 1-24 hrs. The format is ADME, organism-based.
The nature of series [8]: Clearance in rat at 5 mg/kg, iv measured for 1 to 24 hrs by LC-MS analysis. The class given is ADME, organism-based. The following applies: in vivo, time 1-24 hrs.
Series [9] can be described thus: MRT (0 to infinity) in rat at 5 mg/kg, iv measured for 1 to 24 hrs by LC-MS analysis. The class given is ADME, organism-based. The following applies: in vivo, time 1-24 hrs.
A short description of series [10]: MRT (0 to t) in rat at 20 mg/kg, po measured for 1 to 24 hrs by LC-MS analysis. The format is ADME, organism-based. The following applies: in vivo, time 1-24 hrs.
Series [11] is described as follows: Oral bioavailability in rat at 20 mg/kg measured for 1 to 24 hrs by LC-MS analysis. The class given is ADME, organism-based. The following applies: in vivo, time 1-24 hrs.
The subject of series [12] is MCF7. Description: Induction of endoplasmic reticulum stress effect in human MCF7 cells assessed as change in GRP78 level at 10 uM incubated for 3 to 24 hrs by Western blot analysis. The format is functional, cell-based. The following applies: time 3-24 hrs.
The test system of series [13] is MCF7. Description: Induction of endoplasmic reticulum stress effect in human MCF7 cells assessed as change in CHOP level at 10 uM incubated for 24 hrs by immunofluorescence based analysis. The class given is functional, cell-based.
Series [14] relates to MCF7. Put plainly: Induction of immunogenic cell death in human MCF7 cells assessed as CRT translocation at 10 uM by Western blot analysis. The class given is functional, cell-based.
Series [15] deals with MCF7. Put plainly: Induction of immunogenic cell death in human MCF7 cells assessed as CRT translocation at 10 uM by fluorescence microscopy. The class given is functional, cell-based.
The test system of series [16] is MCF7. Put plainly: Induction of immunogenic cell death in human MCF7 cells assessed as HSP90 exposure at 10 uM by Western blot analysis. The class given is functional, cell-based.
Series [17] deals with MCF7. Put plainly: Induction of immunogenic cell death in human MCF7 cells assessed as HMGB1 release from nucleus at 10 uM by Western blot analysis. The class given is functional, cell-based.
In series [18] the test system is MCF7. Description: Induction of immunogenic cell death in human MCF7 cells assessed as HMGB1 release from nucleus at 10 uM by FITC staining based flow cytometry. The format is functional.
For series [19], the system named is MCF7. Put plainly: Antitumor activity against human MCF7 cells xenografted in nude mouse model assessed as tumor growth inhibition at 60 mg/kg, po administered daily via gavage for 30 days. The class given is functional, organism-based. The following applies: time 30.0 day.
Series [20] has as its system MCF7. Description: Antitumor activity against human MCF7 cells xenografted in nude mouse model at 60 mg/kg, po administered daily via gavage for 30 days in presence of ribociclib. The class given is functional, organism-based. The following applies: time 30.0 day.
Series [21] can be described thus: Toxicity in nude mouse model xenografted with human MCF7 cells assessed as morphological change in spleen at 60 mg/kg, po administered daily via gavage for 30 days by H and E staining based analysis. The format is organism-based. The following applies: in vivo, 720 h, time 30 day.
Series [22] has as its system MCF7. Put plainly: Antitumor activity against human MCF7 cells xenografted in nude mouse model assessed as reduction in Ki67 level at 60 mg/kg, po administered daily via gavage for 30 days in presence of ribociclib by IHC analysis. The class given is functional, organism-based. The following applies: time 30.0 day.
Series [23] has as its system MCF7. Put plainly: Antitumor activity against human MCF7 cells xenografted in nude mouse model assessed as reduction in ER level at 60 mg/kg, po administered daily via gavage for 30 days in presence of ribociclib by IHC analysis. The class given is functional, organism-based. The following applies: time 30.0 day.
Series [24] concerns MCF7. Put plainly: Antitumor activity against human MCF7 cells xenografted in nude mouse model assessed as reduction in PR level at 60 mg/kg, po administered daily via gavage for 30 days in presence of ribociclib by IHC analysis. The class given is functional, organism-based. The following applies: time 30.0 day.

Molecule `CCc1ccccc1C(=O)c1cnc2cc(O)ccc2c1Oc1ccc(/C=C/C(=O)O)cc1` had an inhibition at 20 µM in series [1] of 14%. Also, the result in [2], in [5], in series [12], in series [13], in series [14] and in series [15] was Active. The outcome in series [16], in [17], in series [18], in series [20], in series [22] and in [23] was Active. Also, the outcome in series [24] was Active. For the same molecule, the values for the Activity result in series [3], in series [4] and in series [21] were “Dose-Dependent Effect”, “Dose-Dependent Effect” and “Non-Toxic”, respectively. The molecule also displayed a Cmax in series [6] of 10400 ng/mL. Moreover, in [7], the AUC(0-inf) amounted to 3050 ng·h/mL. In series [8], this molecule had a clearance of 27.8 mL/min/kg. In addition, the MRT inf in series [9] is 7.56 min. In series [10], this molecule showed an MRT last of 2.19 h. Further, the bioavailability in series [11] was 5.32%. The inhibition entry in [19] is “Active”.
